Assay results from patent publication US8337828B2, “Use of thymosin alpha 1, alone or in combination with PTX3 or ganciclovir, for the treatment of cytomegalovirus infection” (priority 2006, dated 2012).
Ends that are not written are not given here.

How the values were obtained:
spleen cells = test: Cytokine levels in culture supernatants of spleen cells from MCMV-infected mice (ELISA); type: in vivo
Description: (§1) Arrow indicates an inducible band. Lane 1, uninfected cells; lane 2, MCMV-infected; lane 3, Thymosin alpha 1 treated; lane 4, MCMV+Thymosin alpha 1 treated. (FIG. 3b) Cytokine production (pg/ml) by DC subsets treated as above. Bars indicate the standard errors. *P<0.05, cytokine production in MCMV-infected DC vs uninfected DC. **P<0.05, Thymosin alpha 1-treated vs untreated DC. (FIG. 3c) Cytokine production in mice during MCMV infection. Cytokine levels (pg/ml) in culture supernatants of spleen cells from mice with MCMV infection and treated for a week with Thymosin alpha 1 or GCV. *P<0.05, treated vs untreated mice. ND, not done.
Viral load (FIG. 4a) and cytokine production (FIG. 4b) in C57BL6, TLR4−/−, TLR9−/− and MyD88−/− mice infected with 5×10^5 PFU of MCMV and treated with 200 μg/kg Tα1 for a week. Virus titers, expressed as log 10, were quantified on MEF cells by standard plaque assay on infected tissues removed a week after infection and treatment. Cytokine (pg/ml) levels in culture supernatants of spleen cells were determined by ELISA assay. Bars indicate the standard errors. *P<0.05, Tα1-treated vs untreated mice. Results are representative of 3 independent experiments.
BALB/c or C57BL6 mice were infected with 10^5 or 5×10^5 PFU of MCMV, respectively. Virus titers, expressed as log 10, were quantified on MEF cells by standard plaque assay on lung tissues removed 7 days after the infection. Tα1 (200 μg/kg/daily for a week) and/or GCV (40 mg/kg, three times a week) were administered beginning the day of the infection. Cytokine (pg/ml) levels in culture supernatants of spleen cells (7 days) were determined by ELISA assay. Bars indicate the standard errors. *P<0.05, treated vs untreated mice. Results are representative of 3 independent experiments.
(§2) Quantification of cytokines by ELISA and ELISPOT assays. The levels of cytokines in the culture supernatants of mitogen-stimulated spleen cells (48 h stimulation with 10 μg/ml ConA) or MCMV-pulsed DC (24 h) were determined by ELISA (R&D Systems and PBL, Biomedical Lab, Milan, Italy). The detection limits (pg/ml) of the assays were <16 for IL-12 p70, <10 for IFN-., <3 for IL-10 and <10 for IFN-a. IFN-.-producing NK cells were enumerated by ELISPOT assay on purified NK (Virus Res. 2003; 98:17-467 25). Results are expressed as the mean number of cytokine-producing cells (±SE) per 10^5 cells, calculated using replicates of serial 2-fold dilutions of cells.

MCMV = MCMV viral load in TLR-deficient mice (plaque assay); type: in vivo, C57BL6, TLR4-/-, TLR9-/- and MyD88-/- mice; conditions: 200 μg/kg for a week
Experimental: Viral load (FIG. 4a) and cytokine production (FIG. 4b) in C57BL6, TLR4−/−, TLR9−/− and MyD88−/− mice infected with 5×10^5 PFU of MCMV and treated with 200 μg/kg Tα1 for a week. Virus titers, expressed as log 10, were quantified on MEF cells by standard plaque assay on infected tissues removed a week after infection and treatment. Cytokine (pg/ml) levels in culture supernatants of spleen cells were determined by ELISA assay. Bars indicate the standard errors. *P<0.05, Tα1-treated vs untreated mice. Results are representative of 3 independent experiments. Mice. Wild-type (WT) inbred C57BL6 and BALB/c mice, 8 to 12 weeks old, were purchased from Charles River Breeding Laboratories (Calco, Italy). Pairs of homozygous TLR9-(TLR9−/−), TLR4-(TLR4−/−), and MyD88-(MyD88−/−)-deficient mice (on the C57BL6 background), were bred under specific pathogen-free conditions at the breeding facilities of the University of Perugia, Perugia, Italy. Experiments were performed following protocols approved by the institutional animal committee and in accordance with European Economic Community Council Directive as well as institutional animal care and use guidelines. Plaque assay. Plaque assay was determined on cells grown to subconfluence and incubated with serially diluted virus samples for 2 h at 37° C. (10). All organs from uninfected animals were negative viruses. Virus titers are expressed as log 10 (mean±standard errors, SE).

lymphosarcoma cells = conditions: mouse, in vivo; cited from earlier work
[1] = test system: methylcholanthrene-induced fibrosarcoma; conditions: mouse, in vivo; cited from earlier work
CD11b+DC or pDC = test: Cytokine production by MCMV-pulsed DC subsets (ELISA); type: cell-based, BALB/c mice; conditions: MCMV-infected
Description: as §1
DC subset generation. DC were obtained by culturing 10^6/ml BALB/c bone marrow cells in Iscove's modified medium, containing 10% filtered bovine serum, 50 μM 2-mercaptoethanol, sodium pyruvate (1 mM), 2 mM L-glutamine, HEPES (10 mM), and 50 μg/ml gentamycin in the presence of 150 U/ml mouse rGM-CSF (Sigma) and 75 U/ml rIL-4 (R&D Systems) for 7 days to obtain CD11b+DC or 200 ng/ml FLT3-L (Immunex Corporation, Seattle, Wash.) for 9 days to obtain pDC. Final maturation was accomplished by the addition of 1 μg/ml LPS or 2 μg/ml cytosine phosphorothioate-guanine oligodeoxynucleotide (CpG-B ODN 1668) (Coley Pharmaceutical Group, Wellesley, Mass.) for additional 24 h to CD11b+DC or pDC, respectively (Blood 2003; 102: 3807-344; 3814) CD11b+DC were discriminated on CD11chigh expression and were distinctly composed of CD8a+DC and CD11b+DC. pDC were defined as CD11clow, Ly6C+, CD8a+/− cells. Photographs were taken using a high Resolution Microscopy Color Camera AxioCam, using the AxioVision Software Rel. […]
as §2, with “The detection limits (pg/ml) of the assays were <16 for IL-12 p70, <10 for IFN-., <3 for IL-10 and <10 for IFN-a. IFN-.-producing NK cells were enumerated by ELISPOT assay on purified NK (Virus Res. 2003; 98:17-467 25).” left out

[2] = BALB/c mice with MCMV infection, particularly in the first weeks

## Ac-Ser-Asp-Ala-Ala-Val-Asp-Thr-Ser-Ser-Glu -Ile-Thr-Thr-Lys-Asp-Leu-Lys-Glu-Lys-Lys-Glu-Val-Glu-Glu-Ala-Glu-Asn-O (Ac-SDAAVDTSSEITTKDLKEKKEVEEAEN) [Thymosin alpha 1, acidic peptide present in thymus extract with immunoregulatory properties]
Spleen cells; BALB/c mice with MCMV infection
  IL-10 production: dramatically increased
Spleen cells; [2]
  IFN-. production: significantly increased
  IFN-a production: significantly increased
Spleen cells; BALB/c mice with MCMV infection, soon after treatment, declining thereafter
  IL-12p70 production: slightly increased
Spleen cells; C57BL6 and TLR4-/- mice, 200 μg/kg for a week
  levels of IFN-α, IL-12p70 and IFN-. in supernatants of splenocytes: significantly increased
MCMV; C57BL6 mice
  antiviral effect (viral load): effective
MCMV; MyD88-/- mice
  antiviral effect (viral load): completely ineffective
MCMV; TLR4-/- mice
  antiviral effect (viral load): effective
MCMV; TLR9-/- mice
  antiviral effect (viral load): completely ineffective
Lymphosarcoma cells
  local sarcoma growth, liver and lung metastases of lymphosarcoma cells: significantly reduced
[1]
  pulmonary metastases: reduced
CD11b+DC or pDC; CD11b+DC
  production of IFN-a: slightly promoted
CD11b+DC or pDC; pDC pre-treated
  production of IFN-a: greatly increased
  production of IL-12p70: not affecting
